Source: BindingDB's records for doi:10.1016/j.bmc.2015.07.027 (Ocean University of China, 2015)

assay: Modulation of P-gp (unknown origin) transfected in human MDA435/LCC6MDR cells assessed as paclitaxel IC50 for cell growth inhibition at 1 uM after 5 days by MTS assay

Question: With `COc1ccc(C2=C(c3ccc(OC)c(OC)c3)C(=O)N(C(=O)N3CCN(CC(=O)c4ccc(S(C)(=O)=O)cc4)CC3)C2=O)cc1OC` as the molecule, how does the IC50 read?
Answer: 136 nM

Question: With `COc1ccc(C2=C(c3ccc(OC)c(OC)c3)C(=O)N(C(=O)N3CCN(CC(=O)c4ccc(OCc5ccccc5)c(OC)c4)CC3)C2=O)cc1OC` as the molecule, how does the IC50 read?
Answer: 26 nM

Question: For `CCCCC1OC(=O)c2cc(NC(=O)N3C(=O)C(c4ccc(OC)c(OC)c4)=C(c4ccc(OC)c(OC)c4)C3=O)ccc21` (centres undefined), which IC50 is on record?
Answer: 58 nM

Question: For `COc1ccc(C2=C(c3ccc(OC)c(OC)c3)C(=O)N(C(=O)Nc3ccc4c(c3)C(=O)OC4)C2=O)cc1OC`, which IC50 is on record?
Answer: 126 nM
